For assay [1], the system named is L929 mouse skin fibroblast cells. Description: Necroptosis inhibition in L929 cell assay (TNF-α/z-VAD induced, cell viability by ATP levels). To be noted: 1 h pre-treatment with compound, then TNF-α 40 ng/mL + z-VAD 20 μM for 48 hours. It is filed as cell-based. How it is done: 2. Compounds Tested for Necroptosis Inhibition Activities in L929 Cell Assay
Mouse L929 mouse skin fibroblast cells were added to 96-well plates and then were pre-treated with 10 μM of the test compound for one hour. Then the cells were treated with TNF-α (40 ng/mL, lab-made) and z-VAD (capase inhibitor, from calbiochem) (20 μM) for 48 hours, and the viability of cells was quantified by detecting adenosine triphosphate (ATP) levels. DMSO pretreatment group was used as negative controls, Nec-1 (known necroptosis inhibitor, from Biomol) pretreatment group was used as positive controls.

Assay [2] deals with HT29 cells. Nature of the assay: Necroptosis inhibition in HT29 cell assay (TNF-α/Smac mimetic/z-VAD induced, cell viability). It is filed as cell-based. To be noted: then TNF-α 40 ng/mL + Smac mimetic 100 nM + z-VAD 20 μM for 48 hours. How it is done: 1. Compounds Tested for Necroptosis Inhibition Activities in HT29 Cell Assay
For this assay, HT29 cells were added to 96-well plates and then were pre-treated with 10 μM of the test compound for one hour. Then the cells were treated with tumor necrosis factor alpha (TNF-α, 40 ng/mL), Smacmimetic (cIAP inhibitor) (100 nM) and z-VAD (capase inhibitor, from calbiochem) (20 μM) for 48 hours, and the viability of cells was quantified. DMSO pretreatment group was used as negative controls, Nec-1 (known necroptosis inhibitor, from Biomol) pretreatment group was used as positive controls.

The mark [3] stands for this setting: Homo sapiens, HT-29, 1 h pre-treatment with compound.

The term IC50 denotes the concentration that gives 50% inhibition. Regarding `O=C(NC1CCCCC1)c1csc2ncc(-c3ccc4nc(NC(=O)C5CC5)sc4c3)cc12` [Compound C18, N-cyclohexyl-5-[2-(cyclopropanecarbonylamino)-1,3-benzothiazol-6-yl]thieno[2,3-b]pyridine-3-carboxamide], the figures for the IC50 in assay [1] (Mus musculus) and in assay [2] (setting [3]) were 0.3 nM and 1 nM, respectively.

On to `O=C(Nc1nc2ccc(-c3cnc4ccn(C(=O)OC5CCC(F)(F)CC5)c4c3)cc2s1)C1CC1` [Compound C4, (4,4-difluorocyclohexyl) 6-[2-(cyclopropanecarbonylamino)-1,3-benzothiazol-6-yl]pyrrolo[3,2-b]pyridine-1-carboxylate], for which the IC50 in assay [1] (Mus musculus) came to 3.2 nM; in assay [2] (setting [3]) it was 83 nM.

For `O=C(NC1CCCCC1)c1nsc2ncc(-c3ccc4nc(NC(=O)C5CC5)sc4c3)cc12` [Compound C23, N-cyclohexyl-5-[2-(cyclopropanecarbonylamino)-1,3-benzothiazol-6-yl]isothiazolo[5,4-b]pyridine-3-carboxamide], the IC50 in assay [1] (Mus musculus) came to 1.7 nM; in assay [2] (setting [3]), 5.3 nM.

On to `O=C(Nc1cn2cc(-c3cnc4ccn(C(=O)OC5CCOCC5)c4c3)ccc2n1)C1CC1` [Compound C6, tetrahydropyran-4-yl 6-[2-(cyclopropanecarbonylamino)imidazo-[1,2-a]pyridin-6-yl]pyrrolo[3,2-b]pyridine-1-carboxylate], for which the IC50 was found to be 50 nM in assay [1] (Mus musculus) and 56 nM in assay [2] (setting [3]).

Consider `O=C(NC1CCOCC1)c1nsc2ncc(-c3ccc4nc(NC(=O)C5CC5)sc4c3)cc12` [Compound C14, 5-[2-(cyclopropanecarbonylamino)-1,3-benzothiazol-6-yl]-N-tetrahydropyran-4-yl-isothiazolo[5,4-b]pyridine-3-carboxamide], for which the IC50 stood at 1.3 nM in assay [1] (Mus musculus) and 4.7 nM in assay [2] (setting [3]).

Take `CN1CCC(NC(=O)c2nsc3ncc(-c4ccc5nc(NC(=O)C6CC6)sc5c4)cc23)CC1` [Compound C42, 5-(2-(cyclopropanecarboxamido)benzo[d]thiazol-6-yl)-N-(1-methylpiperidin-4-yl)isothiazolo[5,4-b]pyridine-3-carboxamide]: the values for the IC50 in assay [1] (Mus musculus) and in assay [2] (setting [3]) were 321 nM and 3000 nM, respectively.

For the compound `O=C(Nc1nc2ccc(-c3cnc4ccn(C(=O)CC5CCOCC5)c4c3)cc2s1)C1CC1` [Compound C8, N-[6-[1-(2-tetrahydropyran-4-ylacetyl)pyrrolo[3,2-b]pyridin-6-yl]-1,3-benzothiazol-2-yl]cyclopropanecarboxamide], the IC50 in assay [1] (Mus musculus) came to 17 nM; in assay [2] (setting [3]), 440 nM.

On to `O=C(NC1CCC(F)(F)CC1)c1nsc2ncc(-c3ccc4nc(NC(=O)C5CC5)sc4c3)cc12` [Compound C30, 5-[2-(cyclopropanecarbonylamino)-1,3-benzothiazol-6-yl]-N-(4,4-difluorocyclohexyl)isothiazolo[5,4-b]pyridine-3-carboxamide], for which the results for the IC50 in assay [1] (Mus musculus) and in assay [2] (setting [3]) were 0.8 nM and 10 nM, respectively.

Consider `O=C(Nc1nc2ccc(-c3cnc4ccn(C(=O)NC5CCCCC5)c4c3)cc2s1)C1CC1` [Compound C33, N-cyclohexyl-6-[2-(cyclopropanecarbonylamino)-1,3-benzothiazol-6-yl]pyrrolo[3,2-b]pyridine-1-carboxamide], for which the IC50 in assay [1] (Mus musculus) is 0.3 nM; in assay [2] (setting [3]) it was 4.6 nM.

In the case of `CN1C(=O)C(Cc2c[nH]c3ccccc23)NC1=S` (stereo not drawn) [Nec-1, reference compound], the IC50 in assay [1] stood at 1250 nM; in assay [2] (1 h pre-treatment with compound) it was 300 nM.

Consider `O=C(Nc1nc2ccc(-c3cnc4ccn(C(=O)OC5CCOCC5)c4c3)nc2s1)C1CC1` [Compound C3, tetrahydropyran-4-yl 6-[2-(cyclopropanecarbonylamino)thiazolo[5,4-b]pyridin-5-yl]pyrrolo[3,2-b]pyridine-1-carboxylate], for which the figures for the IC50 in assay [1] (Mus musculus) and in assay [2] (setting [3]) were 72.8 nM and 9.6 nM, respectively.

Consider `O=C(NC1CCOCC1)c1csc2ncc(-c3ccc4nc(NC(=O)C5CC5)sc4c3)cc12` [Compound C12, 5-[2-(cyclopropanecarbonylamino)-1,3-benzothiazol-6-yl]-N-tetrahydropyran-4-yl-thieno[2,3-b]pyridine-3-carboxamide], for which the IC50 in assay [1] (Mus musculus) is 1.5 nM; in assay [2] (setting [3]), 7.3 nM.
